Where no end group is shown, it is not given here.

The target of data set [1] is T1, H2009 cells (Homo sapiens, UniProt P06756+P18564). Briefly: Peptide blocking of cognate H2009.1 phage uptake on H2009 cells. In kind it is cell-based. The conditions noted are these: Fig. 2B, 2D, Supplementary Data.
The target of data set [2] is T1, H2009 cells. Kind of data set: Cellular uptake of labeled peptide by confocal/fluorescence microscopy. In kind it is cell-based. The conditions noted are these: for cellular uptake of peptide-Qdot conjugate (fluorescent/confocal microscopy): 20 nmol/L SAQdot605 conjugate, 10 min incubation.
A further data set in a line: in vivo. As to conditions: SCID, mouse, iv, 5 uCi, total radioactivity.
Another data set has as its system αvβ6. The conditions noted are these: cited from earlier work.

T1 sequence (P06756 31-1048): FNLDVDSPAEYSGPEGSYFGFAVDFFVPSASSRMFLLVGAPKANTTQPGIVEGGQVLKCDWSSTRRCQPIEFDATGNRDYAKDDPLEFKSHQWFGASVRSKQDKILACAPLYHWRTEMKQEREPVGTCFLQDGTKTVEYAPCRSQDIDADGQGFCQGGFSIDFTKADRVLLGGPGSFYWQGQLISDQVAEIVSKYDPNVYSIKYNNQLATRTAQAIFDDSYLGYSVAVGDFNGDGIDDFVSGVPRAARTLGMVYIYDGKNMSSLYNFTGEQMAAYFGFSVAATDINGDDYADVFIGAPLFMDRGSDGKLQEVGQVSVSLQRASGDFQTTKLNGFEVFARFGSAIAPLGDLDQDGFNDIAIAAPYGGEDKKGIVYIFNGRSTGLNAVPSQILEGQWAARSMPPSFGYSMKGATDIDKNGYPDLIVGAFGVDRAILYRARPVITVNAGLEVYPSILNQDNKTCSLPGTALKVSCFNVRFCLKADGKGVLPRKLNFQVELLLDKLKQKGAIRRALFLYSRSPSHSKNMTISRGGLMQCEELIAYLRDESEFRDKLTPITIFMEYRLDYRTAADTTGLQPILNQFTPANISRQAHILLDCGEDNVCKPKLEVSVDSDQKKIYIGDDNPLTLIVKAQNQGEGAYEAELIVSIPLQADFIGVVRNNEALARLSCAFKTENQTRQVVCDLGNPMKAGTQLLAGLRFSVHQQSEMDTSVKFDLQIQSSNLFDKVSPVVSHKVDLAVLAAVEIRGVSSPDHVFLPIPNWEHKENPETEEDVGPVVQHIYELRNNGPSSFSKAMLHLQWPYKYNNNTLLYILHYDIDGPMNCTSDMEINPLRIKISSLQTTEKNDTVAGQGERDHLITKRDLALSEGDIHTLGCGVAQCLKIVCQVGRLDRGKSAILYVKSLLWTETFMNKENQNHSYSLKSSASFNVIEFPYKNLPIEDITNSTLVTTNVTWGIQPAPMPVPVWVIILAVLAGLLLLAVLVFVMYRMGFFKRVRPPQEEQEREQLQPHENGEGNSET
T1 sequence (P18564 22-788): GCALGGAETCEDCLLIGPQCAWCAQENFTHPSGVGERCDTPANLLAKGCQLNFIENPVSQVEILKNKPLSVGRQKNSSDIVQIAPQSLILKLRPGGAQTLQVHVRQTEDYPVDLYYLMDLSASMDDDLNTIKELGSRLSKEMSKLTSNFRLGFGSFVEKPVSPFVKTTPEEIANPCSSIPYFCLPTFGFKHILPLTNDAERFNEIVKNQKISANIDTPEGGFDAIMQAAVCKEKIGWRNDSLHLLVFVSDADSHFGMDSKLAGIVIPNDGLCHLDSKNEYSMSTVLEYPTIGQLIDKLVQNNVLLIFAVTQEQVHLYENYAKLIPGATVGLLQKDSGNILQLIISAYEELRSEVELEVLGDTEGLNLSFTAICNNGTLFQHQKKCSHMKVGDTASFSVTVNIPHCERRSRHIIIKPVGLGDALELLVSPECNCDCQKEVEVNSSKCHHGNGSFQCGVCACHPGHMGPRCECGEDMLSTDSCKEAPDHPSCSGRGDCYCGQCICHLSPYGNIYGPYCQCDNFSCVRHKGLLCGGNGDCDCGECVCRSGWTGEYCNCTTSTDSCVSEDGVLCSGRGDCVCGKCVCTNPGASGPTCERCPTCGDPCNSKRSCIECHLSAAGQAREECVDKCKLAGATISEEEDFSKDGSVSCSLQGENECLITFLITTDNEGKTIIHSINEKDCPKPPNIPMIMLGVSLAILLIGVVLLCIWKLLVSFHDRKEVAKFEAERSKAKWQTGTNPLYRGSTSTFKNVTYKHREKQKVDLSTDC

For RGDLATLRQL-OH, the “ability to block phage uptake / binding affinity for H2009 cells (in words)” value on H2009 cells [1] is on record as “significantly reduced affinity”.
“YAAWPASGAWTGTAPC-SAGT [H1299.2-Qdot conjugate]”: on H2009 cells [2], the “cellular uptake of peptide-Qdot conjugate (fluorescent/confocal microscopy)” value is recorded as “no uptake”. Further, the “localization of β6 integrin after treatment with peptide-Qdot conjugate” value at H2009 cells [2] (10-min incubation, fixed, permeabilized, stained for β6) was “β6 remains localized on the cell surface”.
As to `CC(C)C[C@H](NC(=O)[C@H](CCC(N)=O)NC(=O)[C@H](CCCNC(=N)N)NC(=O)[C@H](CC(C)C)NC(=O)[C@@H](NC(=O)[C@H](C)NC(=O)[C@H](CC(C)C)NC(=O)[C@H](CC(=O)O)NC(=O)CNC(=O)[C@@H](N)CCCNC(=N)N)[C@@H](C)O)C(=O)NCCOCCOCCOCCOCCOCCOCCOCCOCCOCCOCCOCCOCCC(=O)N[C@@H](CSC1CC(=O)N(CCC(=O)NCCCC[C@H](NC(=O)CCN2C(=O)CC(SC[C@H](NC(=O)CCOCCOCCOCCOCCOCCOCCOCCOCCOCCOCCOCCOCCNC(=O)[C@H](CC(C)C)NC(=O)[C@H](CCC(N)=O)NC(=O)[C@H](CCCNC(=N)N)NC(=O)[C@H](CC(C)C)NC(=O)[C@@H](NC(=O)[C@H](C)NC(=O)[C@H](CC(C)C)NC(=O)[C@H](CC(=O)O)NC(=O)CNC(=O)[C@@H](N)CCCNC(=N)N)[C@@H](C)O)C(N)=O)C2=O)C(=O)NCCCC[C@H](NC(=O)[C@H](CCCCNC(=O)CCN2C(=O)CC(SC[C@H](NC(=O)CCOCCOCCOCCOCCOCCOCCOCCOCCOCCOCCOCCOCCNC(=O)[C@H](CC(C)C)NC(=O)[C@H](CCC(N)=O)NC(=O)[C@H](CCCNC(=N)N)NC(=O)[C@H](CC(C)C)NC(=O)[C@@H](NC(=O)[C@H](C)NC(=O)[C@H](CC(C)C)NC(=O)[C@H](CC(=O)O)NC(=O)CNC(=O)[C@@H](N)CCCNC(=N)N)[C@@H](C)O)C(N)=O)C2=O)NC(=O)CCN2C(=O)CC(SC[C@H](NC(=O)CCOCCOCCOCCOCCOCCOCCOCCOCCOCCOCCOCCOCCNC(=O)[C@H](CC(C)C)NC(=O)[C@H](CCC(N)=O)NC(=O)[C@H](CCCNC(=N)N)NC(=O)[C@H](CC(C)C)NC(=O)[C@@H](NC(=O)[C@H](C)NC(=O)[C@H](CC(C)C)NC(=O)[C@H](CC(=O)O)NC(=O)CNC(=O)[C@@H](N)CCCNC(=N)N)[C@@H](C)O)C(N)=O)C2=O)C(=O)N[C@@H](CSC2CC(=O)N(CCNC(=O)CN3CCN(CC(=O)O)CCN(CC(=O)O)CCN(CC(=O)O)CC3)C2=O)C(=O)NCCC(=O)O)C1=O)C(N)=O` (stereo partly shown) [111In-labeled H2009.1 peptide, metal not drawn], the tissue uptake at 4 h in the data set “in vivo” amounted to 0.84 ± 0.11 %ID/g.
For the compound GFTTGRRGDLATIHGMNPF [A20LAP], in the data set on αvβ6, the “affinity for αvβ6” value is on record as “low nanomolar range”.
RGDLATL [H2009.1 7-mer peptide]: the “ability to block phage uptake / binding affinity for H2009 cells (in words)” value at H2009 cells [1] was “retains full activity”.
For the compound DALRLQGTLR [scrambled H2009.1 peptide], at H2009 cells [2], the “cellular uptake of peptide-Qdot conjugate (fluorescent/confocal microscopy)” value is “No uptake”.

Values taken from publication PMC4053473 (Molecular cancer therapeutics, 2009).
